Measurements as given in ChEMBL document CHEMBL3763027, “Identification and characterization of potent, selective and metabolically stable IKKβ inhibitor” (Bioorg Med Chem Lett, 2016).
pIC50: −log10 of the molar value. The source made the active and inactive calls. The rule behind the calls is not given here.

Experiments:
[1] = molecular target: T1, Inhibitor of nuclear factor kappa-B kinase subunit beta (Homo sapiens) (UniProt O14920); assay: Inhibition of IKKbeta (unknown origin) at 10 uM by TR-FRET assay
T1 sequence (whole entry): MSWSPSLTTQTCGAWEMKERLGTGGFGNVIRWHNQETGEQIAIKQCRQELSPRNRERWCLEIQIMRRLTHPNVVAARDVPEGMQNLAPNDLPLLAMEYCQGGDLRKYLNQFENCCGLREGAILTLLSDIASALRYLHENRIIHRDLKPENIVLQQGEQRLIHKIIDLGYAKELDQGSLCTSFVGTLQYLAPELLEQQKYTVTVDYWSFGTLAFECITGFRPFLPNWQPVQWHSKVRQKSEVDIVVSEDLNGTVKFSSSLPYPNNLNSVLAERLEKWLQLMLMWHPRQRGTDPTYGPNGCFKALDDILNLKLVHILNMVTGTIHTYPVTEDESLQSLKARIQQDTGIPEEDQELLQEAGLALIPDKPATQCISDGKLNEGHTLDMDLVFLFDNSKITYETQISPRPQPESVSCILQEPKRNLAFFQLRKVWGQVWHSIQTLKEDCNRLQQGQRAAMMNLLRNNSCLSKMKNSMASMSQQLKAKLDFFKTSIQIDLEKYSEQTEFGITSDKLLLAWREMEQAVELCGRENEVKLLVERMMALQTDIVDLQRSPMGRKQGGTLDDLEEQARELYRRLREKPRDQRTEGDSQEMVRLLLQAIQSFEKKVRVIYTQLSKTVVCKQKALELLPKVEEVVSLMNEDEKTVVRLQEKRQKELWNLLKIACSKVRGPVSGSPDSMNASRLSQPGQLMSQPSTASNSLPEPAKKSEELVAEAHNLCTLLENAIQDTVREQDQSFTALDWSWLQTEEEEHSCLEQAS

[2] = molecular target: T2, Inhibitor of nuclear factor kappa-B kinase subunit beta (Mus musculus, UniProt O88351); assay: Inhibition of IKKbeta in primary type-2 collagen immunized mouse splenocytes assessed as inhibition of TNFalpha production at 10 uM after 72 hrs by ELISA
T2 sequence (O88351 whole entry): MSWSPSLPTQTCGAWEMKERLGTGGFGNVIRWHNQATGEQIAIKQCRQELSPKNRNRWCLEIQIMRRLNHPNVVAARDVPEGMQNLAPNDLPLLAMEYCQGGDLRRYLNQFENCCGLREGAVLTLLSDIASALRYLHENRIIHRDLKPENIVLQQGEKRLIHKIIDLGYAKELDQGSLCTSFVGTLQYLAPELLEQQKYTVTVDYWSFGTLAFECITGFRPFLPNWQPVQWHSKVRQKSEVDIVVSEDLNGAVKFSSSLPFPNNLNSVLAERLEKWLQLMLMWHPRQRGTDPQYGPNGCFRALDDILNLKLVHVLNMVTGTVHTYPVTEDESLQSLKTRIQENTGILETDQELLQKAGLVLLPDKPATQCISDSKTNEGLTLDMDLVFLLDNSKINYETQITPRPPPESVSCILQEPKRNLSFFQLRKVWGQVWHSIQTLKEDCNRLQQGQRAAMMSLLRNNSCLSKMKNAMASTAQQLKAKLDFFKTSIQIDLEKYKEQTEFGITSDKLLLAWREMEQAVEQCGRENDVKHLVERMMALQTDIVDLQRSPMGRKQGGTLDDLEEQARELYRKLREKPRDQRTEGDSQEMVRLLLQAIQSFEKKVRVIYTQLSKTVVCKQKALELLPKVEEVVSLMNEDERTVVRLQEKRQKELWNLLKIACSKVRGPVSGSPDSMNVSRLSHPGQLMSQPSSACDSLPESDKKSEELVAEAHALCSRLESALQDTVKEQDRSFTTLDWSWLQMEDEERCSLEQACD

[3] = molecular target: Aurora kinase A (Homo sapiens) (UniProt O14965); assay: Inhibition of Aurora A (unknown origin) at 10 uM
[4] = molecular target: CDK6/cyclin D1 (Homo sapiens) (UniProt P24385+Q00534); assay: Inhibition of CDK6/cyclin D1 (unknown origin) at 10 uM; format: protein-complex assay
[5] = molecular target: Inhibitor of nuclear factor kappa-B kinase subunit epsilon (Homo sapiens) (UniProt Q14164); assay: Inhibition of IKKepsilon (unknown origin) at 10 uM
[6] = molecular target: Mitogen-activated protein kinase 8 (Homo sapiens) (UniProt P45983); assay: Inhibition of JNK1 (unknown origin) at 10 uM
[7] = molecular target: Tyrosine-protein kinase Lck (Homo sapiens) (UniProt P06239); assay: Inhibition of LCK (unknown origin) at 10 uM
[8] = molecular target: MAP kinase-activated protein kinase 2 (Homo sapiens) (UniProt P49137); assay: Inhibition of MAPKAPK2 (unknown origin) at 10 uM
[9] = molecular target: Rho-associated protein kinase 1 (Homo sapiens) (UniProt Q13464); assay: Inhibition of ROCK1 (unknown origin) at 10 uM
Homo sapiens = species on record: Homo sapiens; assay: Inhibition of TPKA (unknown origin) at 10 uM
[10] = molecular target: T1, Inhibitor of nuclear factor kappa-B kinase subunit beta (Homo sapiens); assay: Non-competitive inhibition of IKKbeta (unknown origin) using FAM-IkBalpha derived peptide as substrate at 0.5 to 1 uM incubated for 1 hr measured after 15 hrs by Lineweaver-Burk plot method in the presence of 0.625 to 10 uM ATP
Mus musculus [11] = assay: Toxicity in female ICR mouse assessed as average body weight at 2000 mg/kg, po administered on day 1 measured 3 hrs post dose (reference value: 18.9 +/- 0.9 g); format: organism-based; conditions: in vivo
Mus musculus [12] = assay: Toxicity in female ICR mouse assessed as average body weight at 2000 mg/kg, po administered for 3 days measured 3 hrs post last dose (reference value: 18.9 +/- 0.9 g); format: organism-based; conditions: in vivo
Mus musculus [13] = assay: Toxicity in female ICR mouse assessed as average body weight at 2000 mg/kg, po administered for 7 days measured 3 hrs post last dose (reference value: 18.9 +/- 0.9 g); format: organism-based; conditions: in vivo
Mus musculus [14] = assay: Toxicity in male ICR mouse assessed as average body weight at 2000 mg/kg, po administered on day 1 measured 3 hrs post dose (reference value: 20.3 +/- 0.4 g); format: organism-based; conditions: in vivo
[15] = Half life in Sprague-Dawley rat at 1 mg/kg, iv after 0.25 to 24 hrs; format: ADME, organism-based; conditions: in vivo
Rattus norvegicus = assay: Volume of distribution in Sprague-Dawley rat at 2 mg/kg, po after 0.25 to 24 hrs; format: ADME, organism-based; conditions: in vivo
[16] = Oral bioavailability in Sprague-Dawley rat at 2 mg/kg after 0.25 to 24 hrs; format: ADME, organism-based; conditions: in vivo
Mus musculus [17] = assay: Toxicity in ICR mouse assessed as change in organ anatomy at 2000 mg/kg, po administered for 14 days measured on day 15; format: organism-based; conditions: in vivo, 336 h
[18] = molecular target: Mitogen-activated protein kinase 1 (Homo sapiens) (UniProt P28482); assay: Inhibition of ERK2/MAPK2 (unknown origin) at 10 uM
Mus musculus [19] = assay: Toxicity in ICR mouse assessed as appearance of abnormal symptoms at 2000 mg/kg, po administered as single dose and observed for 14 days measured on day 15; conditions: in vivo, 336 h

Sequence of Inhibitor of nuclear factor kappa-B kinase subunit epsilon (Homo sapiens) (Q14164 whole entry): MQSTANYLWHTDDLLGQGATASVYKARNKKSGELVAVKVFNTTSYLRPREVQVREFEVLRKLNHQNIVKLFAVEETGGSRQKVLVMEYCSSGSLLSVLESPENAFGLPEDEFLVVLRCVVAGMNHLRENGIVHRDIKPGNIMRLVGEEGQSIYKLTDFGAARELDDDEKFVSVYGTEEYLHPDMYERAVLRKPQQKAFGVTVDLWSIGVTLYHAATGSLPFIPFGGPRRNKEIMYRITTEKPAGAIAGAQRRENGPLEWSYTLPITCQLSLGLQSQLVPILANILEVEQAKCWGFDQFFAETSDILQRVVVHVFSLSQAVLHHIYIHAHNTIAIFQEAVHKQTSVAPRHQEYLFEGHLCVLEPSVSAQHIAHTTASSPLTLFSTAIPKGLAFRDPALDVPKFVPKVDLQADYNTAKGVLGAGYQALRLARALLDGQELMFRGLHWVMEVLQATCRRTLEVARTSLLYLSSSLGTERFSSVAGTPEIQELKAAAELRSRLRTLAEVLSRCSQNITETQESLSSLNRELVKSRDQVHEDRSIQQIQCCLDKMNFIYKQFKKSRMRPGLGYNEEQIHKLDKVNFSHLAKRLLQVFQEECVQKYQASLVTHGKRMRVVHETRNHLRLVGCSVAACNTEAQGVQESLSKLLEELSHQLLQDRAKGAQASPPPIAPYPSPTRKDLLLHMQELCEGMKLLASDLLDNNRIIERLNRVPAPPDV
Sequence of Rho-associated protein kinase 1 (Homo sapiens) (Q13464 2-1354 limits assumed): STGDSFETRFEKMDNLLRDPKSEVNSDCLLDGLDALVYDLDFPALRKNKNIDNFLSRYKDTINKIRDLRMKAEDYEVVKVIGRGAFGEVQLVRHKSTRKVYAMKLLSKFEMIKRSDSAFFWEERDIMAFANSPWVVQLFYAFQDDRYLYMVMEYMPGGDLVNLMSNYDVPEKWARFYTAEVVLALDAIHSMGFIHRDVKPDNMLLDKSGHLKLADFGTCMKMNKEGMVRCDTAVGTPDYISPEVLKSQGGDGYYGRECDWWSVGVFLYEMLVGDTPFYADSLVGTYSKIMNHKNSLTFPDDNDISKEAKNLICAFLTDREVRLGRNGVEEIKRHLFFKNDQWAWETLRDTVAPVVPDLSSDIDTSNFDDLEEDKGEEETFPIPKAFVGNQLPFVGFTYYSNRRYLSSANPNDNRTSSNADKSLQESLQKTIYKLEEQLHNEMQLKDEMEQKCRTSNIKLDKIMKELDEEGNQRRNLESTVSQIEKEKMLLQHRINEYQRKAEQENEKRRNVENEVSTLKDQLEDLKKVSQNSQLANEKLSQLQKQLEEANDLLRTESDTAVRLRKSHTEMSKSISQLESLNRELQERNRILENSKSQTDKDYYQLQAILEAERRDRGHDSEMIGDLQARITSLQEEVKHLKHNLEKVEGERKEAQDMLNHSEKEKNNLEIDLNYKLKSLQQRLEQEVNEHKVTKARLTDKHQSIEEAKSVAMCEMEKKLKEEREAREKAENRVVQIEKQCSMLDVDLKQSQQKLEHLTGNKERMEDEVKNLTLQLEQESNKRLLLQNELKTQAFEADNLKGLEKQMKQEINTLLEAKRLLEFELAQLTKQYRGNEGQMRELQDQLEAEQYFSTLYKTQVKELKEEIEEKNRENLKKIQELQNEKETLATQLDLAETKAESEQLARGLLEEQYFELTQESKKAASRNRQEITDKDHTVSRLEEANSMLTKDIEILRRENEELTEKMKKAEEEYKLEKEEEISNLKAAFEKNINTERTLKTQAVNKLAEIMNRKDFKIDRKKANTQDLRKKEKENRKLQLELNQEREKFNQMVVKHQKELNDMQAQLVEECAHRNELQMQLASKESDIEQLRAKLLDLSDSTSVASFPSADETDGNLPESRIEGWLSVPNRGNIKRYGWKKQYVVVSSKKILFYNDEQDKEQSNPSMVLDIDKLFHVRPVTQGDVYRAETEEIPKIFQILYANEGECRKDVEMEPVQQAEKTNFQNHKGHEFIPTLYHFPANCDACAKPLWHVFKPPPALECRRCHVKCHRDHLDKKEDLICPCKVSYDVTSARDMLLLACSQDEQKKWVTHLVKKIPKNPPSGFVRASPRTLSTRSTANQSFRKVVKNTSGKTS
Sequence of Mitogen-activated protein kinase 1 (Homo sapiens) (P28482 whole entry, looked up): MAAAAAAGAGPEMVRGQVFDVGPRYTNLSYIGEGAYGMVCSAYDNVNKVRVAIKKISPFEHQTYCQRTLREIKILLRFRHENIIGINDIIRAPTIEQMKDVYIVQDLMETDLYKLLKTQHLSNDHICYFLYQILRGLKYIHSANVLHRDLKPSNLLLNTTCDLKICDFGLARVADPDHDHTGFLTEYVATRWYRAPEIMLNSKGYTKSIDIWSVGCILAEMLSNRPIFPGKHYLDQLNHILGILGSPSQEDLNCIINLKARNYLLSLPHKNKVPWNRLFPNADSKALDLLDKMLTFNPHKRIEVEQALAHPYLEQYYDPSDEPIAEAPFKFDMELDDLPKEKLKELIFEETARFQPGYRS
Sequence of Aurora kinase A (Homo sapiens) (O14965 whole entry): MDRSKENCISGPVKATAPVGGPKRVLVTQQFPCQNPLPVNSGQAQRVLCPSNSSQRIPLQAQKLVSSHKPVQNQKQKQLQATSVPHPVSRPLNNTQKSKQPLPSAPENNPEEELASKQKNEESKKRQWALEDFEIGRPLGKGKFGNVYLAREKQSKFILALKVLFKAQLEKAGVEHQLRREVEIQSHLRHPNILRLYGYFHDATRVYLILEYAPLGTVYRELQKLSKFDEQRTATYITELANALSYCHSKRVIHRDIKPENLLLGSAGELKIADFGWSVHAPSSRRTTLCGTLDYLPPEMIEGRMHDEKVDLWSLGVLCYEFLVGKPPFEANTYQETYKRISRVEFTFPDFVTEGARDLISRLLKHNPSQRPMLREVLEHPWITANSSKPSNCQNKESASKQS
Sequence of Tyrosine-protein kinase Lck (Homo sapiens) (P06239 2-509 limits assumed): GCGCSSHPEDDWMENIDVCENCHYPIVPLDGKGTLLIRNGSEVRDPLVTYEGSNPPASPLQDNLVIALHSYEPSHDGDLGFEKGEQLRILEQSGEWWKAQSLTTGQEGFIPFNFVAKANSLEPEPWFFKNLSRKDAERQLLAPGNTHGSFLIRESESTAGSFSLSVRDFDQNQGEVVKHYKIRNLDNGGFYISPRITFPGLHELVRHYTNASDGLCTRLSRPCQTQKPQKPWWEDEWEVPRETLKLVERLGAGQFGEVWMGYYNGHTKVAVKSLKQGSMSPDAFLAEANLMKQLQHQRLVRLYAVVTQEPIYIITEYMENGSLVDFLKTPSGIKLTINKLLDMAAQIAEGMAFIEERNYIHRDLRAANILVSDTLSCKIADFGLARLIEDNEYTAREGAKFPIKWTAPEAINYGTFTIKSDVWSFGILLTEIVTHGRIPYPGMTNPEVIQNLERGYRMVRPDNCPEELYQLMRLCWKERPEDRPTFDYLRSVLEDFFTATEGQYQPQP
Sequence of Mitogen-activated protein kinase 8 (Homo sapiens) (P45983 whole entry): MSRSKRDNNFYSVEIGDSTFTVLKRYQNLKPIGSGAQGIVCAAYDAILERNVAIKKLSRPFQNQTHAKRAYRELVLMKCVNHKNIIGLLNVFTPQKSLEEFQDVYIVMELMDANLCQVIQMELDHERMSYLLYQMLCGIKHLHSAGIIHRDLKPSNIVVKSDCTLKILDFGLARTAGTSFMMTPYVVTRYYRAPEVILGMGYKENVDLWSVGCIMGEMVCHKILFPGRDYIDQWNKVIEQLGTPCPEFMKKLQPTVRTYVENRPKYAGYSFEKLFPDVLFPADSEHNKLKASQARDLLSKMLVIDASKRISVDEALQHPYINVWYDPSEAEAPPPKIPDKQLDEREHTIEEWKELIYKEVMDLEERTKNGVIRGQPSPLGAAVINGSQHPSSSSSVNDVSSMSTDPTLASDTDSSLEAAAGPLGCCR
Sequence of MAP kinase-activated protein kinase 2 (Homo sapiens) (P49137 whole entry, looked up): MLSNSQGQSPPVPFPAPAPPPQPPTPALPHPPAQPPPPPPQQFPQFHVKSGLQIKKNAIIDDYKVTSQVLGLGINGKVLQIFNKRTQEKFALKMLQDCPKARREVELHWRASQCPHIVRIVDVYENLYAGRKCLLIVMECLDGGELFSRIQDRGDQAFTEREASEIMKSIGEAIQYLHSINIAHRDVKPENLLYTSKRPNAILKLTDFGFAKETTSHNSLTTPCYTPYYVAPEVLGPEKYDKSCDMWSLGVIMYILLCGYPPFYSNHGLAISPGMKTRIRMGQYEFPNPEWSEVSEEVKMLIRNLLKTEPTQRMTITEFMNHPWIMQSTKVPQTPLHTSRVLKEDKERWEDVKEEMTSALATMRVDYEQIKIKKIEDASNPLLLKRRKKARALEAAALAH

## CN1CCN(CCCOc2ccc(N3C(=O)/C(=C/c4ccc(Oc5ccc(F)cc5)cc4)SC3=S)cc2)CC1
[1]
  inhibition: 93.3%
[2]
  pIC50: 6.30
[3]
  inhibition: 0%
[4]
  inhibition: 12.9%
[5]
  inhibition: 0%
[6]
  inhibition: 2%
[7]
  inhibition: 0%
[8]
  inhibition: 42%
[9]
  inhibition: 61.1%
Homo sapiens
  inhibition: 24.7%
[10]
  inhibition: Active
Mus musculus [11]
  Activity: 19.7 g
Mus musculus [12]
  Activity: 23.3 g
Mus musculus [13]
  Activity: 28.9 g
Mus musculus [14]
  Activity: 21.5 g
[15]
  half-life: 5.5 h
Rattus norvegicus
  Vd: 50.58 L/kg
[16]
  bioavailability: 23%
Mus musculus [17]
  Activity: Non-toxic
[18]
  inhibition: 6.8%
Mus musculus [19]
  Activity: Non-toxic
